# According to patent US11161844B2, “Cyclic substituted imidazo[4,5-c]quinoline derivatives” (Pfizer Inc., priority 2017, dated 2021):
# Columns and labels:
# [1] = target: LRRK2, WT (GST-tagged truncated LRRK2) (Homo sapiens (Human), UniProt Q5S007); assay: LRRK2 kinase assay (Lantha Screen), wild type; type: biochemical; details: 100 nM LRRKtide, 1 mM ATP, 2 μg/mL enzyme; geometric mean of 2-4 determinations unless otherwise indicated
# Description: (§1) LRRK2 kinase activity was measured using Lantha Screen technology from Invitrogen. GST-tagged truncated LRRK2 from Invitrogen (Cat #PV4874) was incubated with a fluorescein-labeled peptide substrate based upon ezrin/radixin/moesin (ERM), also known as LRRKtide (Invitrogen cat #PR8976A), in the presence of a dose response of compound. Upon completion, the assay was stopped and detected with a terbium labeled anti-phospho-ERM antibody (Invitrogen, cat #PR8975A). The assay was carried out under the following protocol: The compound dose response was prepared by diluting compound to a top concentration of 0.3 mM in 100% DMSO and serial diluted by half-log in DMSO to give an 11 point curve, 100× final assay concentration. Using Echo acoustic dispensing, 60 nL of compound was transferred to a low volume Corning 384-well assay plate. 3 μL of a working solution of substrate (200 nM LRRKtide, 2 mM ATP) prepared in assay buffer (50 mM HEPES, pH 7.5, 3 mM MgCl2, with 2 mM DTT and 0.01% Brij35 added fresh) was added to the 60 nL compound assay plate. The kinase reaction was started with 3 μL of a working solution of LRRK2 enzyme at a concentration of 4 μg/mL. The final reaction concentrations were 100 nM LRRKtide, 1 mM ATP, 2 μg/mL LRRK2 enzyme and a compound dose response with a top dose of 3 μM. The reaction was allowed to progress at room temperature for 30 minutes and then stopped with the addition of 6 μL of detection buffer (20 mM Tris pH 7.6, 0.01% NP-40, 6 mM EDTA with 2 nM terbium labeled anti-phospho-ERM). After an incubation of 1 hour at room temperature, the plate was read on an Envision with an excitation wavelength of 340 nm and a reading emission at both 520 nm and 495 nm. The ratio of the 520 nm and 495 nm emission was used to analyze the data. Inhibition of mutant G2019S LRRK2 (Invitrogen cat #PV4881) was measured in the exact same method. All final concentrations of substrate ATP and enzyme were the same.
# [2] = target: mutant G2019S LRRK2 (Homo sapiens (Human), UniProt Q5S007, G2019S); assay: LRRK2 kinase assay (Lantha Screen), mutant G2019S; type: biochemical; details: 100 nM LRRKtide, 1 mM ATP, 2 μg/mL enzyme; single determination unless otherwise indicated
# mutant G2019S LRRK2, sequence (Q5S007 970-2527 G2019S): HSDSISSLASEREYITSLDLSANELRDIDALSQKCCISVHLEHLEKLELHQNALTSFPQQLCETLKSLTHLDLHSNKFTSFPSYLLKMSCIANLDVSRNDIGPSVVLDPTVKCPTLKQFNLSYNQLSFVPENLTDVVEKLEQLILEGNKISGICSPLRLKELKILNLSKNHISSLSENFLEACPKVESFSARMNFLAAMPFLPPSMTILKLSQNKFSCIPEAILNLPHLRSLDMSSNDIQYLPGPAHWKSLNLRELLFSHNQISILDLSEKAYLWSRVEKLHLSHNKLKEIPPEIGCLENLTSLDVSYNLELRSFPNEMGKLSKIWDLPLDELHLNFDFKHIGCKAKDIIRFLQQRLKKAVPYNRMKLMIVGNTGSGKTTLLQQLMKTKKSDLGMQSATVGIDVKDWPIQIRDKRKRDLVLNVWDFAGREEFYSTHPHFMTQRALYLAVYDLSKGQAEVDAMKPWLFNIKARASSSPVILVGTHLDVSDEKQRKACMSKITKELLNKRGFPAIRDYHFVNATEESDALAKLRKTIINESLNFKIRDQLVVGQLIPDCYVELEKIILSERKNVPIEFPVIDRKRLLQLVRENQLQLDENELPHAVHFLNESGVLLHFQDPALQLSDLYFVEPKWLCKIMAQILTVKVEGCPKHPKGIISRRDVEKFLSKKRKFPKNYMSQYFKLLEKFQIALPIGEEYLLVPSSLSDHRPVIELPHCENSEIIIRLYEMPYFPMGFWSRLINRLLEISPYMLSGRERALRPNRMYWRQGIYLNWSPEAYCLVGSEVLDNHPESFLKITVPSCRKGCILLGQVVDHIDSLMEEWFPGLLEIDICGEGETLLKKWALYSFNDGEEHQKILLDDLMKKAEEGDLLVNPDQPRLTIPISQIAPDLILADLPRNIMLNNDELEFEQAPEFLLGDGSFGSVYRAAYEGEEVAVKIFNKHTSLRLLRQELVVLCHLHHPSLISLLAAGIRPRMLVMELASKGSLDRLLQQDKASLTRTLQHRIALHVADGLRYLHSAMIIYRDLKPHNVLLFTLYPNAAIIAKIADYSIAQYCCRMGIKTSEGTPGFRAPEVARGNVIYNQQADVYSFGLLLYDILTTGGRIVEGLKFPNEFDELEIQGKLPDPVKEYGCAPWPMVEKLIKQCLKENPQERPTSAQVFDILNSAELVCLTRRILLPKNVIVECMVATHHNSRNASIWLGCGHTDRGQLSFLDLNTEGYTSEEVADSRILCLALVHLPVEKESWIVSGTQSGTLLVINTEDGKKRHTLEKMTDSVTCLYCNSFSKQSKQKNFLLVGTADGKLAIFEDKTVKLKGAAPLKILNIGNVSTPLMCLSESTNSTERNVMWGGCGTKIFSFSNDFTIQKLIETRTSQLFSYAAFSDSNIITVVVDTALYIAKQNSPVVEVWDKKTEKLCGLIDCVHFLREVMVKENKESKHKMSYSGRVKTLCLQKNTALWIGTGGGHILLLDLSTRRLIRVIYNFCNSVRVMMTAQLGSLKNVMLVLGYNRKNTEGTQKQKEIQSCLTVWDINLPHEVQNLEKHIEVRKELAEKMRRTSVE
# Description: as §1
# LRRK2, WT (GST-tagged truncated LRRK2), sequence (Q5S007 970-2527): as the sequence (Q5S007 970-2527 G2019S) above, with S1050G counted along it
Structure (SMILES),IC50 [1] [nM],IC50 [2] [nM]
"CC1(C)CC(n2c(C3CCC(F)C3)nc3cnc4ccc(C#N)cc4c32)CCO1 (stereo not shown) [Example 42, 1-(2,2-dimethyltetrahydro-2H-pyran-4-yl)-2-(3-fluorocyclopentyl)-1H-imidazo[4,5-c]quinoline-8-carbonitrile]",46.1,46
"CN1CC[C@@H](n2c(C3CCC(F)C3)nc3cnc4ccc(C#N)cc4c32)C1 (stereo partly drawn) [Example 33, 2-[cis-3-fluorocyclopentyl]-1-[(3R)-1-methylpyrrolidin-3-yl]-1H-imidazo[4,5-c]quinoline-8-carbonitrile]",6.56,4.3
"CC1(C)CC(n2c(C3CCC(F)C3)nc3cnc4ccc(C#N)cc4c32)CCO1 (stereo not shown) [Example 39, 1-(2,2-dimethyltetrahydro-2H-pyran-4-yl)-2-(3-fluorocyclopentyl)-1H-imidazo[4,5-c]quinoline-8-carbonitrile]",4.65,4.41
"C[C@@H]1C[C@H](n2c3c(cnc4ccc(C#N)cc43)nc2[C@H]2C[C@@](C)(F)C2)CCO1 [Example 18, 2-(cis-3-fluoro-3-methylcyclobutyl)-1-[(2R,4R)-2-methyltetrahydro-2H-pyran-4-yl]-1H-imidazo[4,5-c]quinoline-8-carbonitrile]",10.4,8.4
"N#CCC1CC(n2c([C@H]3CCOC3)nc3cnc4ccc(Cl)cc4c32)CCO1 (stereo partly drawn) [Example 30, [cis-4-{8-chloro-2-[(3R)-tetrahydrofuran-3-yl]-1H-imidazo[4,5-c]quinolin-1-yl}tetrahydro-2H-pyran-2-yl]acetonitrile]",6.06,3.02
"CN1CC[C@@H](n2c(C3CCC(F)C3)nc3cnc4ccc(C#N)cc4c32)C1 (stereo partly drawn) [Example 32, 2-[cis-3-fluorocyclopentyl]-1-[(3R)-1-methylpyrrolidin-3-yl]-1H-imidazo[4,5-c]quinoline-8-carbonitrile]",19.6,37.9

# More lines, now with the values ahead:
IC50 [1] [nM],IC50 [2] [nM],Structure (SMILES)
8.99,5.49,"C[C@@H]1C[C@H](n2c3c(cnc4ccc(Cl)cc43)nc2[C@H]2C[C@@H](F)C2)CCO1 [Example 2, 8-chloro-2-(cis-3-fluorocyclobutyl)-1-[(2R,4R)-2-methyltetrahydro-2H-pyran-4-yl]-1H-imidazo[4,5-c]quinoline]"
23,21.2,"C[C@@H]1C[C@H](n2c(C3COC3)nc3cnc4ccc(Cl)cc4c32)CCO1 [Example 12, 8-chloro-1-[(2R,4R)-2-methyltetrahydro-2H-pyran-4-yl]-2-(oxetan-3-yl)-1H-imidazo[4,5-c]quinoline]"
16.4,17.2,"C[C@@H]1C[C@H](n2c(C3CC(C)(F)C3)nc3cnc4ccc(Cl)cc4c32)CCO1 (stereo partly drawn) [Example 5, 8-chloro-2-(3-fluoro-3-methylcyclobutyl)-1-[(2R,4R)-2-methyltetrahydro-2H-pyran-4-yl]-1H-imidazo[4,5-c]quinoline]"
15.9,12.1,"C[C@@H]1C[C@H](n2c(C3CCC(F)(F)CC3)nc3cnc4ccc(Cl)cc4c32)CCO1 [Example 8, 8-chloro-2-(4,4-difluorocyclohexyl)-1-[(2R,4R)-2-methyltetrahydro-2H-pyran-4-yl]-1H-imidazo[4,5-c]quinoline]"
19.1,11.9,"CO[C@H]1C[C@@H](c2nc3cnc4ccc(Cl)cc4c3n2[C@@H]2CCO[C@H](C)C2)C1 [Example 6, 8-chloro-2-(cis-3-methoxycyclobutyl)-1-[(2R,4R)-2-methyltetrahydro-2H-pyran-4-yl]-1H-imidazo[4,5-c]quinoline]"
15.6,11.2,"C[C@@H]1C[C@H](n2c(C3CCC(F)(F)CC3)nc3cnc4ccc(C#N)cc4c32)CCO1 [Example 17, 2-(4,4-difluorocyclohexyl)-1-[(2R,4R)-2-methyltetrahydro-2H-pyran-4-yl]-1H-imidazo[4,5-c]quinoline-8-carbonitrile]"
12,12.2,"N#CC[C@@H]1C[C@H](n2c(C3CC(F)(F)C3)nc3cnc4ccc(Cl)cc4c32)CCO1 (single isomer, unassigned) [Example 27, {cis-4-[8-chloro-2-(3,3-difluorocyclobutyl)-1H-imidazo[4,5-c]quinolin-1-yl]tetrahydro-2H-pyran-2-yl}acetonitrile]"
12.3,7.4,"C[C@@H]1C[C@H](n2c([C@H]3CCOC3)nc3cnc4ccc(Cl)cc4c32)CCO1 [Example 4, 8-chloro-1-[(2R,4R)-2-methyltetrahydro-2H-pyran-4-yl]-2-[(3R)-tetrahydrofuran-3-yl]-1H-imidazo[4,5-c]quinoline]"
